Laboratory results from ChEMBL document CHEMBL3399952, “Design and synthesis of novel anti-tuberculosis agents from the celecoxib pharmacophore” (Bioorg Med Chem, 2015).
Active and inactive are the calls of the source.

Legend:
Format in all cases: functional, organism-based
[1] = tested on: Mycobacterium tuberculosis; assay: Antimycobacterial activity against isoniazid, ethambutol-resistant Mycobacterium tuberculosis Strain 11J assessed as reduction in growth measured at 2.5 uM after 90 hrs by optical density-based broth culture growth assay
[2] = tested on: Mycobacterium tuberculosis; assay: Antimycobacterial activity against isoniazid, streptomycin-resistant Mycobacterium tuberculosis Strain 13E assessed as reduction in growth measured at 2.5 uM after 90 hrs by optical density-based broth culture growth assay
[3] = tested on: Mycobacterium tuberculosis; assay: Antimycobacterial activity against rifampicin, streptomycin-resistant Mycobacterium tuberculosis Strain 13B assessed as reduction in growth measured at 2.5 uM after 90 hrs by optical density-based broth culture growth assay

Measured: inhibition

CNC(=O)CCc1cc(-c2ccc(-c3ccc(C(F)(F)F)cc3)cc2)n(-c2ccc(NC(=O)c3ccc(N)cc3)cc2)n1
active: all assays above

CNC(=O)CCc1cc(-c2ccc(-c3ccc(C(F)(F)F)cc3)cc2)nn1-c1ccc(NC(=O)c2ccncc2)cc1
active: all assays above

CNC(=O)CCc1cc(-c2ccc(-c3ccc(C(F)(F)F)cc3)cc2)n(-c2ccc(NC(=O)c3ccnc(C)c3)cc2)n1
active: all assays above

CNC(=O)CCc1cc(-c2ccc(-c3ccc(C(F)(F)F)cc3)cc2)n(-c2ccc(NC(=O)c3ccncc3Cl)cc2)n1
active: all assays above

CNC(=O)CCc1cc(-c2ccc(-c3ccc(C(F)(F)F)cc3)cc2)n(-c2ccc(NC(=O)c3ccncc3)cc2)n1
active: all assays above

CNC(=O)CCc1cc(-c2ccc(-c3ccc(C(F)(F)F)cc3)cc2)n(-c2ccc(NC(=O)c3cn(C)cn3)cc2)n1
active: all assays above
